Assay results from patent EP2601188B1, “HEPATITIS C VIRUS INHIBITORS” (Bristol-Myers Squibb Company, priority 2010, dated 2012).
Like-named read-outs stand apart in the source and are kept apart here.

Tested on: HCV 1b genotype
Experiment: HCV Replicon assay (HCV-neo replicon cells, wild-type)
Format: cell-based
Conditions: Hepatitis C virus, HCV 1b genotype replicon
Experimental: An HCV Replicon assay was utilized in the present disclosure, and was prepared, conducted and validated as described in commonly owned PCT/US2006/022197 and in O'Boyle et. al. Antimicrob Agents Chemother. 2005 Apr;49(4):1346-53. Assay methods incorporating luciferase reporters have also been used as described (Apath.com).
HCV-neo replicon cells and replicon cells containing mutations in the NS5A region were used to test the currently described family of compounds. The compounds were determined to have more than 10-fold less inhibitory activity on cells containing mutations than wild-type cells. Thus, the compounds of the present disclosure can be effective in inhibiting the function of the HCV NS5A protein and are understood to be as effective in combinations as previously described in application PCT/US2006/022197 and commonly owned WO/O4014852. Further, the compounds of the present disclosure can be effective against the HCV 1b genotype. It should also be understood that the compounds of the present disclosure can inhibit multiple genotypes of HCV. […] In one embodiment, compounds of the present disclosure are inhibitory versus 1a, 1b, 2a, 2b, 3a, 4a, and 5a genotypes.

[1] = class symbols, read-out: EC50 Range
[2] = values given in pM, read-out: EC50

SMILES | EC50 [1] [nM] | other results
COC(=O)N[C@H](C(=O)N1CCC[C@H]1c1nc[nH]c1-c1cccc(C#Cc2ccc3[nH]c([C@@H]4CCCN4C(=O)[C@H](NC(=O)OC)C(C)C)nc3c2)c1)C(C)C (stereo in doubt) [J.281, methyl ((1S)-1-(((2S)-2-(5-(3-((2-((2S)-1-((2R)-2-((methoxycarbonyl)amino)-3-methylbutanoyl)-2-pyrrolidinyl)-1H-benzimidazol-5-yl)ethynyl)phenyl)-1H-imidazol-4-yl)-1-pyrrolidinyl)carbonyl)-2-methylpropyl)carbamate] | 4.57 to 99 | EC50 (values in nM, read-out: EC50): 7 nM
COC(=O)N[C@H](C(=O)N1[C@@H]2C[C@@H]2C[C@H]1c1nc2c([nH]1)-c1ccc(-c3ccc4[nH]c([C@@H]5C[C@H]6C[C@H]6N5C(=O)[C@@H](NC(=O)OC)C(C)C)nc4c3)cc1CCC2)C(C)C [J.24, methyl ((1S)-1-(((1R,3S,5R)-3-(8-(2-((1R,3S,5R)-2-((2S)-2-((methoxycarbonyl)amino)-3-methylbutanoyl)-2-azabicyclo[3.1.0]hex-3-yl)-1H-benzimidazol-5-yl)-1,4,5,6-tetrahydrobenzo[3,4]cyclohepta[1,2-d]imidazol-2-yl)-2-azabicyclo[3.1.0]hex-2-yl)carbonyl)-2-methylpropyl)carbamate] | – | EC50 [2]: 0.01 nM
COC(=O)N[C@H](C(=O)N1CCC[C@H]1c1nc(-c2ccc(-c3ccc(-c4ccc5[nH]c([C@@H]6CCCN6C(=O)[C@@H](NC(=O)OC)C(C)C)nc5c4)cc3)cc2)c[nH]1)C(C)C [J.26, methyl ((1S)-1-(((2S)-2-(5-(4'-(2-((2S)-1-((2S)-2-((methoxycarbonyl)amino)-3-methylbutanoyl)-2-pyrrolidinyl)-1H-imidazol-4-yl)-4-biphenylyl)-1H-benzimidazol-2-yl)-1-pyrrolidinyl)carbonyl)-2-methylpropyl)carbamate] | – | EC50 [2]: 0.005 nM
COC(=O)N[C@@H](C(=O)N1CCC[C@H]1c1nc2cc(-c3ccc(-c4ccc5c(ccc6nc([C@@H]7CCCN7C(=O)[C@H](NC(=O)OC)c7ccccc7)[nH]c65)c4)cc3)ccc2[nH]1)c1ccccc1 [J.27c, methyl ((1R)-2-((2S)-2-(7-(4-(2-((2S)-1-((2R)-2-((methoxycarbonyl)amino)-2-phenylacetyl)-2-pyrrolidinyl)-1H-benzimidazol-5-yl)phenyl)-1H-naphtho[1,2-d]imidazol-2-yl)-1-pyrrolidinyl)-2-oxo-1-phenylethyl)carbamate] | – | EC50 [2]: 0.003 nM
COC(=O)N[C@H](C(=O)N1CCC[C@H]1c1nc2c(F)cc(C#Cc3ccc4c(ccc5nc([C@@H]6CCCN6C(=O)[C@@H](NC(=O)OC)C(C)C)[nH]c54)c3)cc2[nH]1)C(C)C [J.28h, methyl ((1S)-1-(((2S)-2-(4-fluoro-6-((2-((2S)-1-((2S)-2-((methoxycarbonyl)amino)-3-methylbutanoyl)-2-pyrrolidinyl)-1H-naphtho [1,2-d]imidazol-7-yl)ethynyl)-1H-benzimidazol-2-yl)-1-pyrrolidinyl)carbonyl)-2-methylpropyl)carbamate] | – | EC50 [2]: 0.12 nM
COC(=O)NC(C(=O)N1[C@@H](C)CC[C@H]1c1nc2ccc3cc(C#Cc4ccc5[nH]c([C@@H]6CC[C@H](C)N6C(=O)[C@@H](NC(=O)OC)C(C)C)nc5c4)ccc3c2[nH]1)C1CCOCC1 (stereo partly drawn) [J.28i.4a, methyl ((1S)-1-(((2S,5S)-2-(5-((2-((2S,5S)-1-(((methoxycarbonyl)amino)(tetrahydro-2H-pyran-4-yl)acetyl)-5-methyl-2-pyrrolidinyl)-1H-naphtho[1,2-d]imidazol-7-yl)ethynyl)-1H-benzimidazol-2-yl)-5-methyl-1-pyrrolidinyl)carbonyl)-2-methylpropyl)carbamate] | – | EC50 (values in nM, read-out: EC50): 3.8 nM
CCN(CC)[C@@H](C(=O)N1CCC[C@H]1c1nc2cc(C#Cc3cccc(-c4[nH]cnc4[C@@H]4CCCN4C(=O)[C@@H](c4ccccc4)N(CC)CC)c3)ccc2[nH]1)c1ccccc1 [J.28m, (1R)-2-((2S)-2-(5-(3-((2-((2S)-1-((2R)-2-(diethylamino)-2-phenylacetyl)-2-pyrrolidinyl)-1H-benzimidazol-5-yl)ethynyl)phenyl)-1H-imidazol-4-yl)-1-pyrrolidinyl)-N,N-diethyl-2-oxo-1-phenylethanamine] | 4.57 to 99 | EC50 (values in nM, read-out: EC50): 55.7 nM
COc1cccc2c(C(=O)N3CCC[C@H]3C(=O)Nc3cccc(-c4ncc(-c5ccc6[nH]c([C@@H]7CCCN7C(=O)c7nc(Cl)cc8c(OC)cccc78)nc6c5)o4)c3)nc(Cl)cc12 [J.48d, 1-((3-chloro-5-methoxy-1-isoquinolinyl)carbonyl)-N-(3-(5-(2-((2S)-1-((3-chloro-5-methoxy-1-isoquinolinyl)carbonyl)-2-pyrrolidinyl)-1H-benzimidazol-5-yl)-1,3-oxazol-2-yl)phenyl)-L-prolinamide] | 100 to 999 | EC50 (values in nM, read-out: EC50): 147 nM
O=C(Nc1ccc(-c2ncc(-c3ccc4[nH]c([C@@H]5CCCN5C(=O)[C@H](O)c5ccccc5)nc4c3)o2)cc1)[C@@H]1CCCN1C(=O)[C@H](O)c1ccccc1 [J.50, 1-((2R)-2-hydroxy-2-phenylacetyl)-N-(4-(5-(2-((2S)-1-((2R)-2-hydroxy-2-phenylacetyl)-2-pyrrolidinyl)-1H-benzimidazol-5-yl)-1,3-oxazol-2-yl)phenyl)-L-prolinamide] | 4.57 to 99 | –
COc1cccc2c(C(=O)N3CCC[C@H]3C(=O)Nc3ccc(-c4ncc(-c5ccc6[nH]c([C@@H]7CCCN7C(=O)c7nc(Cl)cc8c(OC)cccc78)nc6c5)o4)cc3)nc(Cl)cc12 [J.50c, 1-((3-chloro-5-methoxy-1-isoquinolinyl)carbonyl)-N-(4-(5-(2-((2S)-1-((3-chloro-5-methoxy-1-isoquinolinyl)carbonyl)-2-pyrrolidinyl)-1H-benzimidazol-5-yl)-1,3-oxazol-2-yl)phenyl)-L-prolinamide] | 1000 to 10000 | EC50 (value given in µM, read-out: EC50): > 10000 nM
O=C(Nc1ccc(-c2ncc(-c3ccc4[nH]c([C@@H]5CCCN5C(=O)[C@H](O)c5ccccc5)nc4c3)o2)cc1F)[C@@H]1CCCN1C(=O)[C@H](O)c1ccccc1 [J.51, N-(2-fluoro-4-(5-(2-((2S)-1-((2R)-2-hydroxy-2-phenylacetyl)-2-pyrrolidinyl)-1H-benzimidazol-5-yl)-1,3-oxazol-2-yl)phenyl)-1-((2R)-2-hydroxy-2-phenylacetyl)-L-prolinamide] | 4.57 to 99 | –
COc1cccc2c(C(=O)N3CCC[C@H]3C(=O)Nc3ccc(-c4ncc(-c5ccc6[nH]c([C@@H]7CCCN7C(=O)c7nc(Cl)cc8c(OC)cccc78)nc6c5)o4)cc3F)nc(Cl)cc12 [J.51b, 1-((3-chloro-5-methoxy-1-isoquinolinyl)carbonyl)-N-(4-(5-(2-((2S)-1-((3-chloro-5-methoxy-1-isoquinolinyl)carbonyl)-2-pyrrolidinyl)-1H-benzimidazol-5-yl)-1,3-oxazol-2-yl)-2-fluorophenyl)-L-prolinamide] | 100 to 999 | –
Cc1ccc(-c2ncc(-c3ccc4[nH]c([C@@H]5CCCN5C(=O)[C@@H](c5ccccc5)N(C)C)nc4c3)o2)cc1NC(=O)[C@@H]1CCCN1C(=O)CN(C)C [J.52a, N,N-dimethylglycyl-N-(5-(5-(2-((2S)-1-((2R)-2-(dimethylamino)-2-phenylacetyl)-2-pyrrolidinyl)-1H-benzimidazol-5-yl)-1,3-oxazol-2-yl)-2-methylphenyl)-L-prolinamide] | 4.57 to 99 | –
O=C(Nc1cccc(-c2ncc(-c3ccc4[nH]c([C@@H]5CCCN5C(=O)CC5CC5)nc4c3)o2)c1)[C@@H]1CCCN1C(=O)CC1CC1 [J.53, 1-(cyclopropylacetyl)-N-(3-(5-(2-((2S)-1-(cyclopropylacetyl)-2-pyrrolidinyl)-1H-benzimidazol-5-yl)-1,3-oxazol-2-yl)phenyl)-L-prolinamide] | 100 to 999 | –
O=C(Nc1cccc(-c2cnc(-c3ccc4[nH]c([C@@H]5CCCN5C(=O)CC5CC5)nc4c3)o2)c1)[C@@H]1CCCN1C(=O)CC1CC1 [J.53a, 1-(cyclopropylacetyl)-N-(3-(2-(2-((2S)-1-(cyclopropylacetyl)-2-pyrrolidinyl)-1H-benzimidazol-5-yl)-1,3-oxazol-5-yl)phenyl)-L-prolinamide] | 1000 to 10000 | –
COC(=O)N[C@@H](C(=O)N1CCC[C@H]1c1nc(C#Cc2ccc(-c3ccc4[nH]c([C@@H]5CCCN5C(=O)[C@H](NC(=O)OC)C(C)C)nc4c3)cc2)c[nH]1)C(C)C [JB.8.1, methyl ((1R)-1-(((2S)-2-(4-((4-(2-((2S)-1-((2R)-2-((methoxycarbonyl)amino)-3-methylbutanoyl)-2-pyrrolidinyl)-1H-benzimidazol-5-yl)phenyl)ethynyl)-1H-imidazol-2-yl)-1-pyrrolidinyl)carbonyl)-2-methylpropyl)carbamate] | 100 to 999 | –
O=C([C@@H](c1ccccc1)N1CCCCC1)N1CCC[C@H]1c1nc(C#Cc2ccc(-c3ccc4[nH]c([C@@H]5CCCN5C(=O)[C@@H](c5ccccc5)N5CCCCC5)nc4c3)cc2)c[nH]1 [JB.12, 2-((2S)-1-((2R)-2-phenyl-2-(1-piperidinyl)acetyl)-2-pyrrolidinyl)-5-(4-((2-((2S)-1-((2R)-2-phenyl-2-(1-piperidinyl)acetyl)-2-pyrrolidinyl)-1H-imidazol-4-yl)ethynyl)phenyl)-1H-benzimidazole] | – | EC50 [2]: 0.0652 nM
CC(=O)N1CCC[C@H]1C(=O)Nc1ccc(C#Cc2ccc3nc([C@@H]4CCCN4C(=O)Cc4ccccc4)[nH]c3c2)cc1 [M.8, (S)-1-acetyl-N-(4-((2-((S)-1-(2-phenylacetyl)pyrrolidin-2-yl)-1H-benzo[d]imidazol-6-yl)ethynyl)phenyl)pyrrolidine-2-carboxamide] | 4.57 to 99 | EC50 (values in nM, read-out: EC50): 46.4 nM
